Common to all, as to type: cell-based
The target in assay [1] is T1, hGIPR (Homo sapiens, UniProt P48546).
T1 construct: expressed in transfected cells
T1 sequence (P48546 22-466): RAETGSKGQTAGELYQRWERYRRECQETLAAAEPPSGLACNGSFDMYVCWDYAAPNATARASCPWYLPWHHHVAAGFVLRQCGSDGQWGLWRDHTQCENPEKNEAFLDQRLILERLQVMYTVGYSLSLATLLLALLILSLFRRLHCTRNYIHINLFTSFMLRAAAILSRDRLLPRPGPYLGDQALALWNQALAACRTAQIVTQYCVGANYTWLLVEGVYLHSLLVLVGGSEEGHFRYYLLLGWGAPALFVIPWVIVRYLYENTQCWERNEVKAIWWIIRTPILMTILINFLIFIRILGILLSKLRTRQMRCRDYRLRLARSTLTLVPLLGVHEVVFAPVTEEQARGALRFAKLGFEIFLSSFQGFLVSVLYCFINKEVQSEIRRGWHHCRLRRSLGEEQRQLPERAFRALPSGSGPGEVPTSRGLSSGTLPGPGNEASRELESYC
Put plainly: Functional cAMP formation (HTRF) in HEK-293 clonal cells expressing hGIPR, 0.1% bovine casein, without or with 1.0% human serum albumin. The following applies: for EC50: read-out: hGIPR EC50, nM (SEM, n); for Emax: read-out: hGIPR Emax, % ± SEM. In outline: (§1)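 Cells were stimulated with peptide for 30 min at 37° C, then intracellular cAMP was measured by competitive HTRF (665/620 nm ratio) and converted to nM using a cAMP standard curve. Relative EC50 and Emax came from four-parameter logistic fits of percent maximal response against peptide concentration.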
A general note: Cyclic AMP is a second messenger, typically raised through Gs and lowered through Gi signalling.

The target in assay [2] is hGLP-1R (Homo sapiens, UniProt P43220). Put plainly: Functional cAMP formation (HTRF) in HEK-293 clonal cells expressing hGLP-1R, 0.1% bovine casein, without or with 1.0% human serum albumin. Also on record: expressed in transfected cells. The following applies: for EC50: read-out: hGLP-1R EC50, nM (SEM, n); for Emax: read-out: hGLP-1R Emax, % ± SEM. The method, boiled down: as §1

Assay [3] concerns the target T2, hGCGR (Homo sapiens, UniProt P47871).
T2 construct: expressed in transfected cells
The assay can be described thus: Functional cAMP formation (HTRF) in HEK-293 clonal cells expressing hGCGR, 0.1% bovine casein, without or with 1.0% human serum albumin. The following applies: read-out: hGCGR EC50, nM (SEM, n). In outline:
as §1

The mark [4] stands for this setting: 0.1% bovine casein and 1.0% human serum albumin, 37° C., geometric mean.
Where [5] appears, read: HEK293, 0.1% bovine casein and 1.0% human serum albumin, 37° C., percent of maximal response to GIP(1-42)NH2.
Where [6] appears, read: HEK293, percent of maximal response to GIP(1-42)NH2, 37° C., 0.1% bovine casein, arithmetic mean.
Where [7] appears, read: cAMP, incubated at 37° C., 0.1% bovine casein (no human serum albumin), geometric mean.
[8] abbreviates: HEK293, cAMP, 37° C., 0.1% bovine casein and 1.0% human serum albumin, percent of maximal response to GIP(1-42)NH2.
Setting [9] is: HEK293, cAMP, 37° C., 0.1% bovine casein, percent of maximal response to GIP(1-42)NH2, arithmetic mean.
Setting [10] is: cAMP, 37° C., 0.1% bovine casein (no human serum albumin), geometric mean.
Setting [11] is: cAMP, 37° C., 0.1% bovine casein and 1.0% human serum albumin, geometric mean (SEM, n).

Molecules are shown by their SMILES. Like-named read-outs stand apart in the source and are kept apart here.

T2 sequence (P47871 26-477): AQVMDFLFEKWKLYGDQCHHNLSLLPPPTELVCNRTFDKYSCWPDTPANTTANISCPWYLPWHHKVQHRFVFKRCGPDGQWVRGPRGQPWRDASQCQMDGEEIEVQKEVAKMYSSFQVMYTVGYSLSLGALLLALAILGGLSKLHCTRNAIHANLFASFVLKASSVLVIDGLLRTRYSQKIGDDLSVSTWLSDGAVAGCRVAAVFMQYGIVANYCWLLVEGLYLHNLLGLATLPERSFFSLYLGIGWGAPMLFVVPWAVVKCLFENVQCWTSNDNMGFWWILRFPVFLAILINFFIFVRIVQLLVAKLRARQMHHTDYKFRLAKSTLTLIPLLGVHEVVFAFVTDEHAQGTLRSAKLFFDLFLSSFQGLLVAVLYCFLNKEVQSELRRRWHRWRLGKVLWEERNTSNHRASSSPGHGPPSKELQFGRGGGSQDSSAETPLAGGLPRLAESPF
Chain of hGLP-1R (P43220 24-463): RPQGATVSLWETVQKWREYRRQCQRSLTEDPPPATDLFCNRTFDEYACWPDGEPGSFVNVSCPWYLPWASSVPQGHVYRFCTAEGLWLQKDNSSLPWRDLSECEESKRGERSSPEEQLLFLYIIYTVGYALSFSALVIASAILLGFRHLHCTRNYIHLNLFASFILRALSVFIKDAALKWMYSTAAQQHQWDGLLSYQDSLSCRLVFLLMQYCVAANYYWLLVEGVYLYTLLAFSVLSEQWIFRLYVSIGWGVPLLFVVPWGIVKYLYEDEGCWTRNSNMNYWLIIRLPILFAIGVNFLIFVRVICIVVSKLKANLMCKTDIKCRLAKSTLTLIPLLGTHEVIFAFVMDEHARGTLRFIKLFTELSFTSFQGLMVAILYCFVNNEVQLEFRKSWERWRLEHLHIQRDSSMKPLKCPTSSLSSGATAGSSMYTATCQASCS

On to `CC[C@H](C)[C@H](NC(=O)[C@H](CCCN)NC(=O)[C@H](CC(=O)O)NC(=O)[C@H](CC(C)C)NC(=O)[C@](C)(CC(C)C)NC(=O)[C@@H](NC(=O)[C@H](CO)NC(=O)[C@H](Cc1ccncc1)NC(=O)[C@H](CC(=O)O)NC(=O)[C@H](CO)NC(=O)[C@@H](NC(=O)[C@](C)(Cc1ccccc1F)NC(=O)[C@@H](NC(=O)CNC(=O)[C@H](CCC(=O)O)NC(=O)C(C)(C)NC(=O)[C@@H](N)Cc1ccc(O)cc1)[C@@H](C)O)[C@@H](C)O)[C@@H](C)CC)C(=O)N[C@@H](C)C(=O)N[C@@H](CCC(N)=O)C(=O)NC(C)(C)C(=O)N[C@@H](CCCCNC(=O)COCCOCCNC(=O)COCCOCCNC(=O)CCCCCCCCCCCCC(=O)O)C(=O)N[C@@H](Cc1ccccc1)C(=O)N[C@H](C(=O)N[C@H](CCC(=O)O)C(=O)N[C@@](C)(Cc1ccc(O)cc1)C(=O)N[C@@H](CC(C)C)C(=O)N[C@H](C(=O)N[C@@H](CCC(=O)O)C(=O)NCC(=O)NCC(=O)N1CCC[C@H]1C(=O)N[C@@H](CO)C(=O)N[C@@H](CO)C(=O)NCC(=O)N[C@@H](C)C(=O)N1CCC[C@H]1C(=O)N1CCC[C@H]1C(=O)N1CCC[C@H]1C(=O)N[C@@H](CO)C(=O)N[C@@H](CCCCNC(=O)COCCOCCNC(=O)COCCOCCNC(=O)CCCCCCCCCCCCC(=O)O)C(N)=O)[C@@H](C)CC)[C@@H](C)CC` [Example 196], for which the concentration giving a half-maximal response (EC50) (as a rule, the midpoint of the concentration-response curve) in assay [1] (setting [4]) is 0.712 nM; in assay [1] (setting [7]) it was 0.0232 nM; in assay [2] (setting [4]) it was 21.4 nM; in assay [2] (setting [7]), 0.356 nM; in assay [3] (setting [4]) it was above 9950 nM; in assay [3] (setting [7]) it was above 9950 nM. The maximum response (Emax) (in general, the maximal effect, on the per cent scale that the assay sets) was found to be 80.8 ± 0.269% in assay [1] (setting [5]); 96 ± 2.1% in assay [1] (setting [6]); 112 ± 4.62% in assay [2] (HEK293, 0.1% bovine casein and 1.0% human serum albumin, 37° C., percent of maximal response to GLP-1(7-36)NH2); 96.8 ± 2.59% in assay [2] (HEK293, percent of maximal response to GLP-1(7-36)NH2, 37° C., 0.1% bovine casein, arithmetic mean).
Consider `CC[C@H](C)[C@H](NC(=O)[C@H](CC(C)C)NC(=O)[C@](C)(Cc1ccc(O)cc1)NC(=O)[C@@H](CCC(=O)O)NC(=O)[C@@H](NC(=O)[C@H](Cc1ccccc1)NC(=O)[C@H](CCCCNC(=O)COCCOCCNC(=O)CC[C@H](NC(=O)CCCCCCCCCCCCC(=O)O)C(=O)O)NC(=O)C(C)(C)NC(=O)[C@H](CCC(N)=O)NC(=O)[C@H](C)NC(=O)[C@H](CCCCNC(=O)COCCOCCNC(=O)CC[C@H](NC(=O)CCCCCCCCCCCCC(=O)O)C(=O)O)NC(=O)[C@H](CCCN)NC(=O)[C@H](CC(=O)O)NC(=O)[C@H](CC(C)C)NC(=O)[C@](C)(CC(C)C)NC(=O)[C@@H](NC(=O)C(C)(C)NC(=O)[C@H](Cc1ccncc1)NC(=O)[C@H](CC(=O)O)NC(=O)[C@H](CO)NC(=O)[C@@H](NC(=O)[C@](C)(Cc1ccccc1F)NC(=O)[C@@H](NC(=O)CNC(=O)[C@H](CCC(=O)O)NC(=O)C(C)(C)NC(=O)[C@@H](N)Cc1ccc(O)cc1)[C@@H](C)O)[C@@H](C)O)[C@@H](C)CC)[C@@H](C)CC)C(=O)N[C@@H](CCC(=O)O)C(=O)NCC(=O)NCC(=O)N1CCC[C@H]1C(=O)N[C@@H](CO)C(=O)N[C@@H](CO)C(=O)NCC(=O)N[C@@H](C)C(=O)N1CCC[C@H]1C(=O)N1CCC[C@H]1C(=O)N1CCC[C@H]1C(=O)N[C@@H](CO)C(N)=O` [Example 336], for which the maximal effect (Emax) in assay [1] (setting [8]) worked out at 94.6%; in assay [1] (setting [9]), 109%. Moreover, the EC50 in assay [1] (setting [10]) was 0.0136 nM; in assay [1] (setting [11]), 2.92 nM; in assay [2] (setting [10]), 0.338 nM; in assay [3] (setting [10]), above 10100 nM; in assay [3] (setting [11]), above 10100 nM.
Take `CC[C@H](C)[C@H](NC(=O)[C@H](CC(C)C)NC(=O)[C@](C)(Cc1ccc(O)cc1)NC(=O)[C@@H](CCC(=O)O)NC(=O)[C@@H](NC(=O)[C@H](Cc1ccccc1)NC(=O)[C@H](CCCN)NC(=O)C(C)(C)NC(=O)[C@H](CCC(N)=O)NC(=O)[C@H](C)NC(=O)[C@H](CCCCNC(=O)COCCOCCNC(=O)COCCOCCNC(=O)CC[C@H](NC(=O)CCCCCCCCCCCCC(=O)O)C(=O)O)NC(=O)[C@H](CCCN)NC(=O)[C@H](CC(=O)O)NC(=O)[C@H](CC(C)C)NC(=O)[C@](C)(CC(C)C)NC(=O)[C@@H](NC(=O)C(C)(C)NC(=O)[C@H](Cc1ccncc1)NC(=O)[C@H](CC(=O)O)NC(=O)[C@H](CO)NC(=O)[C@@H](NC(=O)[C@](C)(Cc1ccccc1F)NC(=O)[C@@H](NC(=O)CNC(=O)[C@H](CCC(=O)O)NC(=O)C(C)(C)NC(=O)[C@@H](N)Cc1ccc(O)cc1)[C@@H](C)O)[C@@H](C)O)[C@@H](C)CC)[C@@H](C)CC)C(=O)N[C@@H](CCCCNC(=O)COCCOCCNC(=O)COCCOCCNC(=O)CC[C@H](NC(=O)CCCCCCCCCCCCC(=O)O)C(=O)O)C(=O)NCC(=O)NCC(=O)N1CCC[C@H]1C(=O)N[C@@H](CO)C(=O)N[C@@H](CO)C(=O)NCC(=O)N[C@@H](C)C(=O)N1CCC[C@H]1C(=O)N1CCC[C@H]1C(=O)N1CCC[C@H]1C(=O)N[C@@H](CO)C(N)=O` [Example 348]: the maximum response (Emax) in assay [1] (setting [8]) came out at 79.3%; in assay [1] (setting [9]) it was 95.9%; in assay [2] (HEK293, cAMP, 37° C., 0.1% bovine casein and 1.0% human serum albumin, percent of maximal response to GLP-1(7-36)NH2), 98%. Besides, the 50% effective concentration (EC50) in assay [1] (setting [10]) is 0.0228 nM; in assay [2] (setting [10]), 0.805 nM; in assay [2] (setting [11]) it was 8.95 nM; in assay [3] (setting [10]), above 9950 nM; in assay [3] (setting [11]), above 9950 nM.
As for `CC[C@H](C)[C@H](NC(=O)[C@H](CC(C)C)NC(=O)[C@](C)(Cc1ccc(O)cc1)NC(=O)[C@@H](CCC(=O)O)NC(=O)[C@@H](NC(=O)[C@H](Cc1ccccc1)NC(=O)[C@H](CCC(=O)O)NC(=O)C(C)(C)NC(=O)[C@H](CCC(N)=O)NC(=O)[C@H](C)NC(=O)[C@H](CCCCNC(=O)CC[C@H](NC(=O)COCCOCCNC(=O)CCCCCCCCCCCCC(=O)O)C(=O)O)NC(=O)[C@H](CCCN)NC(=O)[C@H](CC(=O)O)NC(=O)[C@H](CC(C)C)NC(=O)[C@](C)(CC(C)C)NC(=O)[C@@H](NC(=O)[C@H](CO)NC(=O)[C@H](Cc1ccncc1)NC(=O)[C@H](CC(=O)O)NC(=O)[C@H](CO)NC(=O)[C@@H](NC(=O)[C@](C)(Cc1ccccc1F)NC(=O)[C@@H](NC(=O)CNC(=O)[C@H](CCC(=O)O)NC(=O)C(C)(C)NC(=O)[C@@H](N)Cc1ccc(O)cc1)[C@@H](C)O)[C@@H](C)O)[C@@H](C)CC)[C@@H](C)CC)C(=O)N[C@@H](CCC(=O)O)C(=O)NCC(=O)NCC(=O)N[C@@H](CCCCNC(=O)CC[C@H](NC(=O)COCCOCCNC(=O)CCCCCCCCCCCCC(=O)O)C(=O)O)C(=O)N[C@@H](CO)C(=O)N[C@@H](CO)C(=O)NCC(=O)N[C@@H](C)C(=O)N1CCC[C@H]1C(=O)N1CCC[C@H]1C(=O)N1CCC[C@H]1C(=O)N[C@@H](CO)C(N)=O` [Example 42], the 50% effective concentration (EC50) was 1 nM in assay [1] (setting [4]); 0.0103 nM in assay [1] (setting [7]); 26.7 nM in assay [2] (setting [4]); above 9950 nM in assay [3] (setting [4]); above 9950 nM in assay [3] (setting [7]). Further, the maximum response (Emax) is 91.1 ± 0.67% in assay [1] (setting [5]) and 97.8 ± 7.18% in assay [1] (setting [6]).

The record behind these values is US20230265151A1, “GIP/GLP1 CO-AGONIST COMPOUNDS” (priority 2020, published 2023).
